# According to patent US20230021448A1, “COMPOUNDS AND COMPOSITIONS FOR TREATING CONDITIONS ASSOCIATED WITH STING ACTIVITY” (IFM Due, Inc., priority 2019, published 2023):
# Target: T1, STING (Homo sapiens, UniProt Q86WV6, G230A/H232R/R293Q/R71H)
# T1 construct: host or cells: THP1-Dual KO-IFNAR2 cells
# Test: STING reporter assay: luciferase reporter activity in THP1-Dual KO-IFNAR2 cells stimulated with 2'3'cGAMP
# Assay type: cell-based
# Conditions: 2′3′cGAMP 15 μM final, 24h, read-out: hSTING: EC50
# Method: STING pathway activation by the compounds described herein was measured using THIP1-Dua1™ cells (KO-IFNAR2).
# TTIP1-Dual™ KO-IFNAR2 Cells (obtained from invivogen) were maintained in RPMI, 10% FCS, 5 ml P/S, 2 mM L-glut, 10 mM Hepes, and 1 mM sodium pyruvate. Compounds were spotted in empty 384 well tissue culture plates (Greiner 781182) by Echo for a final concentration of 0.0017-100 μM. Cells were plated into the TC plates at 40 μL per well, 2×10E6 cells/mL. For activation with STING ligand, 2′3′cGAMP (MW 718.38, obtained from Invivogen), was prepared in Optimem media.
# The following solutions were prepared for each 1×384 plate: • Solution A: 2 mL Optimem with one of the following stimuli: • […] • Solution B: 2 mL Optimem with 60 μL Lipofectamine 2000->Incubate 5 min at RT
# 2 mL of solution A and 2 ml Solution B was mixed and incubated for 20 min at room temperature (RT). 20 uL of transfection solution (A+B) was added on top of the plated cells, with a final 2′3′cGAMP concentration of 15 μM. The plates were then centrifuged immediately at 340 g for 1 minute, after which they were incubated at 37° C., 5% C02, >98% humidity for 24h. Luciferase reporter activity was then measured. EC50 values were calculated by using standard methods known in the art.
# Luciferase reporter assay: 10 μL of supernatant from the assay was transferred to white 384-plate with flat bottom and squared wells. One pouch of QUANTI-Luc™ Plus was dissolved in 25 mL of water. 100 μL of QLC Stabilizer per 25 mL of QUANTI-Luc™ Plus solution was added. 50 μL of QUANTI-Luc™ Plus/QLC solution per well was then added. Luminescence was measured on a Platereader (e.g., Spectramax I3X (Molecular Devices GF3637001)).
# Luciferase reporter activity was then measured. EC50 values were calculated by using standard methods known in the art.
# T1 sequence (Q86WV6 whole entry R71H/G230A/H232R/R293Q): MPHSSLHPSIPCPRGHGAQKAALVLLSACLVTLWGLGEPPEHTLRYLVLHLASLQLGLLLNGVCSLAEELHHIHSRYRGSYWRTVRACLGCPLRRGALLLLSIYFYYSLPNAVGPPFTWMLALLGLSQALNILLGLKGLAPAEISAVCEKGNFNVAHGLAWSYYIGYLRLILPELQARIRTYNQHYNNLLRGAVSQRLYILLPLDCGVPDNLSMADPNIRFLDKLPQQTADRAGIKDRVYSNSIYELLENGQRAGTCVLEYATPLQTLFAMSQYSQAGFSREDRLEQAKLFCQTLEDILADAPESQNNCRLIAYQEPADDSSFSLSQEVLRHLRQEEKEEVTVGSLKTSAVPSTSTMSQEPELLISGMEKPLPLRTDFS
row,EC50,Structure (SMILES)
1,200 to 1000 nM,O=C(NCc1ccc(C(F)(F)F)c(Cl)c1)C(=O)Nc1c[nH]c2ccc(-c3cnn(CC(F)(F)F)c3)cc12 [Compound 350]
2,200 to 1000 nM,"CCC(NC(=O)C(=O)Nc1c[nH]c2cc(F)c(F)cc12)c1cccc(C(F)(F)F)c1 (single isomer, unassigned) [Compound 236]"
3,200 to 1000 nM,CN(CCNC(=O)C(=O)Nc1c[nH]c2cc(F)c(F)cc12)c1ccccn1 [Compound 322]
4,200 to 1000 nM,"CC(CN(C)c1ccccc1)NC(=O)C(=O)Nc1c[nH]c2cc(F)c(F)cc12 (single isomer, unassigned) [Compound 320]"
5,200 to 1000 nM,Cc1ccc(CNC(=O)C(=O)Nc2c[nH]c3ccc(-c4cccc(CO)c4)cc23)cc1C(F)(F)F [Compound 134]
6,200 to 1000 nM,"CC(C)(C)OC(=O)N1CC2CC(NC(=O)C(=O)Nc3c[nH]c4cc(F)c(F)cc34)CC2C1 (centres unmarked) [Compound 267, tert-butyl 5-{[(5,6-difluoro-1H-indol-3-yl)carbamoyl] formamido}-octahydrocyclopenta[c] pyrrole-2-carboxylate]"
7,40 to 200 nM,"O=C(NCc1cccc2c1OC(F)(F)O2)C(=O)Nc1c[nH]c2cc(F)c(F)cc12 [Compound 148, N1-(5,6-difluoro-1H-indol-3-yl)-N2-((2,2-difluorobenzo[d] [1,3]dioxol-4-yl)methyl) oxalamide]"
8,40 to 200 nM,Cc1ccc(O[C@H]2C[C@H](NC(=O)C(=O)Nc3c[nH]c4cc(F)c(F)cc34)C2)nc1 [Compound 199]
9,200 to 1000 nM,O=C(NCc1cnc(C2CCC(F)(F)CC2)c(F)c1)C(=O)Nc1c[nH]c2cc(F)c(F)cc12 [Compound 333]
10,200 to 1000 nM,"O=C(Nc1c[nH]c2cc(F)c(F)cc12)C(=O)N[C@H]1CCN(c2ccc(C(F)(F)F)cn2)C1 [Compound 264, (S)-N-(5,6-difluoro-1H-indol-3-yl)-N′-(1-(5-(trifluoromethyl)pyridin-2-yl)pyrrolidin-3-yl)oxalamide]"
11,200 to 1000 nM,O=C(NCCc1ccc(C(F)(F)F)c(Cl)c1)C(=O)Nc1c[nH]c2cc(F)c(F)cc12 [Compound 143]
12,40 to 200 nM,O=C(Nc1ccc(C2CCOCC2)cc1)C(=O)Nc1c[nH]c2cc(F)c(F)cc12 [Compound 105]
13,200 to 1000 nM,"N#Cc1cc(NC(=O)C(=O)Nc2c[nH]c3cc(F)c(F)cc23)ccc1N1CCCC1 [Compound 286, N′-[3-cyano-4-(pyrrolidin-1-yl)phenyl]-N-(5,6-difluoro-1H-indol-3-yl)ethanediamide]"
14,200 to 1000 nM,O=C(Nc1c[nH]c2cc(F)c(F)cc12)C(=O)N1CCN(c2ccc(CC(F)(F)F)cn2)CC1 [Compound 241]
15,40 to 200 nM,O=C(NCc1cc(C(F)(F)F)ccn1)C(=O)Nc1c[nH]c2cc(F)c(F)cc12 [Compound 126]
16,200 to 1000 nM,"O=C(NCCOc1ccc(C(F)(F)F)cc1)C(=O)Nc1c[nH]c2cc(F)c(F)cc12 [Compound 149, N1-(5,6-difluoro-1H-indol-3-yl)-N2-(2-(4-(trifluoromethyl)phenoxy)ethyl) oxalamide]"
17,1000 to 5000 nM,"O=C(Nc1cnc(-n2nccn2)c(C(F)(F)F)c1)C(=O)Nc1c[nH]c2cc(F)c(F)cc12 [Compound 238, N1-(6-(2H-1,2,3-triazol-2-yl)-5-(trifluoromethyl)pyridin-3-yl)-N2-(5,6-difluoro-1H-indol-3-yl)oxalamide]"
18,1000 to 5000 nM,O=C(Nc1c[nH]c2cc(F)c(F)cc12)C(=O)N[C@@H]1CCN(c2ccccc2)C1 [Compound 128]
19,40 to 200 nM,O=C(NCc1cc(C(F)(F)F)c(Cl)cn1)C(=O)Nc1c[nH]c2cc(F)c(F)cc12 [Compound 335]
20,200 to 1000 nM,O=C(Nc1c[nH]c2cc(F)c(F)cc12)C(=O)NC1CCC(OCC(F)F)CC1 (centres unmarked) [Compound 178]
21,1000 to 5000 nM,"O=C(Nc1c[nH]c2cc(F)c(F)cc12)C(=O)NC1CCOC2(CCCC2)C1 (single isomer, unassigned) [Compound 244]"
22,40 to 200 nM,O=C(NCc1ccc(C(F)(F)F)c(Cl)c1)C(=O)Nc1c[nH]c2ccc(Br)cc12 [Compound 133]
23,200 to 1000 nM,O=C(NCCc1cccc(C(F)(F)F)c1)C(=O)Nc1c[nH]c2cc(F)c(F)cc12 [Compound 351]
24,200 to 1000 nM,O=C(NCCC1CCC(F)(F)CC1)C(=O)Nc1c[nH]c2cc(F)c(F)cc12 [Compound 110]
25,200 to 1000 nM,"O=C(NCC1CCCC(F)(F)C1)C(=O)Nc1c[nH]c2cc(F)c(F)cc12 (centres unmarked) [Compound 150, N1-(5,6-difluoro-1H-indol-3-yl)-N2-((3,3-difluorocyclohexyl)methyl)oxalamide]"

row,EC50,Structure (SMILES)
1,40 to 200 nM,O=C(NCc1ccc(C(F)(F)F)c(Cl)c1)C(=O)Nc1c[nH]c2cc(F)c(F)cc12 [Compound 123]
2,200 to 1000 nM,"CCC(NC(=O)C(=O)Nc1c[nH]c2cc(F)c(F)cc12)c1cccc(C(F)(F)F)c1 (single isomer, unassigned) [Compound 235]"
3,200 to 1000 nM,"O=C(NCC(=O)c1cccc(C(F)(F)F)c1)C(=O)Nc1c[nH]c2cc(F)c(F)cc12 [Compound 275, N-(5,6-difluoro-1H-indol-3-yl)-N′-{2-oxo-2-[3-(trifluoromethyl)phenyl]ethyl} ethanediamide]"
4,200 to 1000 nM,O=C(NCc1cncc(C(F)(F)F)c1)C(=O)Nc1c[nH]c2cc(F)c(F)cc12 [Compound 343]
5,200 to 1000 nM,"Cc1cc(F)c(Cl)cc1NC(=O)C(=O)Nc1c[nH]c2cc(F)c(F)cc12 [Compound 154, N1-(5-chloro-4-fluoro-2-methylphenyl)-N2-(5,6-difluoro-1H-indol-3-yl)oxalamide]"
6,1000 to 5000 nM,O=C(Nc1c[nH]c2cc(F)c(F)cc12)C(=O)N[C@H]1CC[C@H](NCC(F)(F)F)CC1 [Compound 211]
7,1000 to 5000 nM,O=C(Nc1c[nH]c2ccc(Cl)cc12)C(=O)N[C@H]1C[C@H](Nc2ccccn2)C1 [Compound 208]
8,200 to 1000 nM,C[C@@H](CN(C)c1ccccc1)NC(=O)C(=O)Nc1c[nH]c2cc(F)c(F)cc12 (stereo in doubt) [Compound 319]
9,200 to 1000 nM,O=C(Nc1c[nH]c2cc(F)c(F)cc12)C(=O)N[C@H]1C[C@H](Oc2cncc(C(F)(F)F)c2)C1 [Compound 201]
10,200 to 1000 nM,O=C(Nc1c[nH]c2cc(F)c(F)cc12)C(=O)NC1CCC2(CCCCC2)CC1 [Compound 109]
11,200 to 1000 nM,"O=C(Nc1c[nH]c2cc(F)c(F)cc12)C(=O)NC(c1ccccc1)C(F)(F)F (centres unmarked) [Compound 312, N1-(5,6-difluoro-1H-indol-3-yl)-N2-(2,2,2-trifluoro-1-phenylethyl)oxalamide]"
12,5000 to 100000 nM,"CN(C)CC(NC(=O)C(=O)Nc1c[nH]c2cc(F)c(F)cc12)c1ccccc1 (centres unmarked) [Compound 308, N-(5,6-difluoro-1H-indol-3-yl)-N′-[2-(dimethylamino)-1-phenylethyl] ethanediamide]"
13,200 to 1000 nM,O=C(Nc1c[nH]c2cc(F)c(F)cc12)C(=O)NC1CC(Oc2ccc(C(F)(F)F)cc2)C1 (centres unmarked) [Compound 218]
14,40 to 200 nM,"O=C(Nc1c[nH]c2cc(F)c(F)cc12)C(=O)N[C@H]1CCC[C@H](Oc2ccc(C(F)(F)F)cc2)C1 (single isomer, unassigned) [Compound 227]"
15,200 to 1000 nM,"CCC(NC(=O)C(=O)Nc1c[nH]c2cc(F)c(F)cc12)c1cccc(C(F)(F)F)c1 (centres unmarked) [Compound 311, N-(5,6-difluoro-1H-indol-3-yl)-N′-{1-[3-(trifluoromethyl)phenyl]propyl} ethanediamide]"
16,200 to 1000 nM,"Cc1c(NC(=O)C(=O)Nc2c[nH]c3cc(F)c(F)cc23)cccc1C(F)(F)F [Compound 167, N1-(5,6-difluoro-1H-indol-3-yl)-N2-(2-methyl-3-(trifluoromethyl)phenyl)oxalamide]"
17,200 to 1000 nM,Cc1cc2c(cn1)C(NC(=O)C(=O)Nc1c[nH]c3cc(F)c(F)cc13)CCC2 (centres unmarked) [Compound 323]
18,200 to 1000 nM,O=C(Nc1c[nH]c2cc(F)c(F)cc12)C(=O)NC1CCN(c2ccc(C(F)(F)F)cn2)C1 (centres unmarked) [Compound 337]
19,200 to 1000 nM,O=C(NCCCOc1ccc(C(F)(F)F)nc1)C(=O)Nc1c[nH]c2cc(F)c(F)cc12 [Compound 200]
20,200 to 1000 nM,Cc1cnc(CNC(=O)C(=O)Nc2c[nH]c3cc(F)c(F)cc23)cc1C(F)(F)F [Compound 318]
21,40 to 200 nM,CC[C@H]1CC[C@H](NC(=O)C(=O)Nc2c[nH]c3cc(F)c(F)cc23)CC1 [Compound 186]
22,5000 to 100000 nM,O=C(Nc1c[nH]c2cc(F)c(F)cc12)C(=O)NC1CCC(Oc2ccc(C(F)(F)F)cn2)CC1 (centres unmarked) [Compound 255]
23,200 to 1000 nM,"O=C(Nc1c[nH]c2cc(F)c(F)cc12)C(=O)NC(c1ccccc1)C(F)(F)F (single isomer, unassigned) [Compound 240, N-(5,6-difluoro-1H-indol-3-yl)-N′-(2,2,2-trifluoro-1-phenylethyl)oxalamide]"
24,1000 to 5000 nM,O=C(Nc1c[nH]c2cc(F)c(F)cc12)C(=O)N1CCC2(CCCCC2)CC1 [Compound 252]
25,40 to 200 nM,C[C@H](NC(=O)C(=O)Nc1c[nH]c2cc(F)c(F)cc12)c1cc(C(F)(F)F)c(Cl)cn1 (stereo in doubt) [Compound 259]
